Assay [1] deals with WT NPR-A co-transfected with isoform 2. Kind of assay: Whole-cell cGMP assay, DLD-1 cells co-transfected with WT NPR-A and isoform 2. It is filed as cell-based, rat. The settings on record: peptide 30 min, ELISA, triplicates. From the text: (§1) A plasmid containing rat NPR-A in a pCMV-4 backbone, gifted by Dr. Ruey-Bing Yang (Academia Sinica), was used as the NPR-A template. All three receptor isoforms plasmids were created by modifying the NPR-A sequence in the template plasmid using Site-Directed Mutagenesis (SDM) following the protocol from the Q5® Site-Directed Mutagenesis kit. All plasmids were cloned and expanded in NEB 5 α competent cells. DNA sequencing was done to confirm the success of the SDM. Primers used to clone isoform 1 are 5’—tga ccc tga gtg ggg gca acc ttg tgg c—3’ and 5’—gcc aca agg ttg ccc cca ctc agg gtc a—3’. primers used to clone isoform 2 are 5’ –gac ggg tgc ctt cag gcc ctg cca ggt tgt cct gaa cta ta—3’ and 5’ –tat agt tca gga caa cct ggc agg gcc tga agg cac ccg tc—3’. Primers used to clone isoform 3 are 5’—gtg gag gat ggc ctg gca gtg aca gag act—3’ and 5’—agt ctc tgt cac tgc cag gcc atc ctc cac—3’.
(§2) DLD-1 cells were cultured in complete RPMI-1640 medium supplemented with 10% HI-FBS and 1% Penicillin–Streptomycin (P/S). Cells were sub-cultured every 3 days using trypsinization. DLD-1 cells (0.2 million) were seeded per well in 24-well plates to attain near 70% confluent before transfection was performed following the manufacturer’s protocol. Plasmids of interest was incubated with lipofectamine 3000 in a 1:1 ratio before the mixture was added to the cells. For single transfection, 0.8 μ g of the plasmid of interest was used. For co-transfection, the NPR-A WT plasmid was fixed at 0.8 μ g and the receptor isoforms were mixed with the WT plasmid according to their given percentages. For 1% co-transfection, 0.8 μ g of NPR-A WT plasmid was mixed with 0.00808 μ g of receptor isoforms. […]
(§3) Cells were transfected following the transfection protocol above and incubated for another 16 h overnight. […] Total protein content of three wells were determined using Bicinchoninic acid assay and used for normalizing across the different 24-well plates. Expression of the receptors in 3 wells were determined using Western blotting.

The subject of assay [2] is WT NPR-A co-transfected with receptor isoforms. Kind of assay: Whole-cell cGMP assay, DLD-1 cells co-transfected with WT NPR-A and isoforms (statements over more than one isoform). To be noted: 1% co-transfection of isoform 1 and 2. It is filed as cell-based, rat.
Text: as §1
(§4) DLD-1 cells were cultured in complete RPMI-1640 medium supplemented with 10% HI-FBS and 1% Penicillin–Streptomycin (P/S). Cells were sub-cultured every 3 days using trypsinization. […]
as §3

For the next assay, the system named is NPR-A isoform 2. As to the kind of experiment: Whole-cell cGMP assay (competitive ELISA), DLD-1 cells transfected with NPR-A isoform 2 alone. It counts as cell-based, rat. To be noted: IBMX 0.5 mM 30 min, then peptide 30 min.
Text: as §1, §4, §3

Assay [3] concerns NPR-A. The settings on record: compared with the vasodilatory analogue (DRD-ANP); cited from earlier work. From the text: We evaluated the roles of three distinct amino acid residues found within the K-ring and the C-terminal and identified the residues that are responsible for these functions. […] The separation of diuretic and hemodynamic bioactivity in DRD-ANP and D ...
Assay [4] has as its system NPR-A. The settings on record: ANP compared with BNP; cited from earlier work. From the text:
They interact with three NP receptors (NPRs), namely NPR-A, NPR-B and NPR-C. Lack of NPs or their receptors have been associated with hypertension and heart failure.

Assay [5] deals with WT NPR-A co-transfected with isoform 1. Kind of assay: Whole-cell cGMP assay, DLD-1 cells co-transfected with WT NPR-A and isoform 1. The settings on record: peptide 30 min, ELISA, triplicates. It is filed as cell-based, rat.
Text: as §1, §4, §3
On the technique in general: An ELISA detects its analyte on a solid surface through an enzyme-linked reagent.

A further assay has as its system NPR-A isoform 1. Kind of assay: Whole-cell cGMP assay (competitive ELISA), DLD-1 cells transfected with NPR-A isoform 1 alone. It is filed as cell-based, rat. To be noted: IBMX 0.5 mM 30 min, then peptide 30 min.
Text: as §1, §4, §3

In assay [6] the test system is WT NPR-A co-transfected with isoform 3. As to the kind of experiment: Whole-cell cGMP assay, DLD-1 cells co-transfected with WT NPR-A and isoform 3. It counts as cell-based, rat. The settings on record: peptide 30 min, ELISA, triplicates.
Text: as §1, §2, §3

The next assay relates to NPR-A isoform 3. Kind of assay: Whole-cell cGMP assay (competitive ELISA), DLD-1 cells transfected with NPR-A isoform 3 alone. It is filed as cell-based, rat. The settings on record: IBMX 0.5 mM 30 min, then peptide 30 min.
Text: as §1, §4, §3

Here are results for one compound from paper PMC10665444, “Unveiling the potential role of natriuretic peptide receptor a isoforms in fine-tuning the cGMP production and tissue-specific function” (Scientific Reports, 2023).

`CC[C@H](C)[C@@H]1NC(=O)[C@H](CCCNC(=N)N)NC(=O)[C@H](CC(=O)O)NC(=O)[C@H](CCSC)NC(=O)[C@H](CCCNC(=N)N)NC(=O)CNC(=O)CNC(=O)[C@H](Cc2ccccc2)NC(=O)[C@@H](NC(=O)[C@H](CO)NC(=O)[C@H](CO)NC(=O)[C@H](CCCNC(=N)N)NC(=O)[C@H](CCCNC(=N)N)NC(=O)[C@H](CC(C)C)NC(=O)[C@@H](N)CO)CSSC[C@@H](C(=O)N[C@@H](CC(N)=O)C(=O)N[C@@H](CO)C(=O)N[C@@H](Cc2ccccc2)C(=O)N[C@@H](CCCNC(=N)N)C(=O)N[C@@H](Cc2ccc(O)cc2)C(=O)O)NC(=O)CNC(=O)[C@H](CC(C)C)NC(=O)CNC(=O)[C@H](CO)NC(=O)[C@H](CCC(N)=O)NC(=O)[C@H](C)NC(=O)CNC1=O` [ANP, Atrial natriuretic peptide]: the “decrease in cGMP production of WT NPR-A” value in [1] (1% co-transfection with isoform 2) is 8.0%; in assay [1] (10% co-transfection with isoform 2), 69.8%; in [1] (50% co-transfection with isoform 2) it was 84.1%; in assay [5] (1% co-transfection with isoform 1), “approximately 10.6%”; in [5] (50% co-transfection with isoform 1), 87.4%; in assay [6] (1% co-transfection with isoform 3), 22.6%. The “decrease in cGMP production of WT NPR-A” value in assay [6] (10% co-transfection with isoform 3) is 54.3%; in assay [6] (50% co-transfection with isoform 3), 86.2%. Further, the “reduction in cGMP production (range over isoforms 1 and 2)” value in assay [2] was 8–10.6%. Moreover, the “cGMP production (result in words)” value with NPR-A isoform 2, in the assay with NPR-A isoform 1 and with NPR-A isoform 3 was “no cGMP production was observed” in each case. The “rate of cGMP production (in words)” value with NPR-A [3] is reported as “produce cGMP much faster than the vasodilatory analogue (DRD-ANP)”. Also, the “binding affinity for NPR-A (in words)” value in the assay on NPR-A [4] is “stronger binding affinity than BNP”.
